Test results: ChEMBL document CHEMBL1201862, “PubChem BioAssay data set” (2004)
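96-well plates; 48 h exposure; 5 concentrations. Endpoints by linear interpolation between flanking doses. Not reached: highest tested concentration assigned. At the GI50, growth is halved.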 Active and inactive are the calls of the source. Rule as the data show it: active = GI50 up to about 1.1 µM and inactive = higher.

Assays:
Assay in all cases: inhibition of tumour cell growth, NCI panel, 48 h
IGROV-1 = test system: IGROV-1
A498 = test system: A498
SR = test system: SR
EKVX = test system: EKVX
SF-268 = test system: SF-268
Malme-3M = test system: Malme-3M
NCI-H460 = test system: NCI-H460
OVCAR-5 = test system: OVCAR-5
KM12 = test system: KM12
HT-29 = test system: HT-29
HCT-116 = test system: HCT-116
OVCAR-8 = test system: OVCAR-8
KM-20L2 = test system: KM-20L2
CCRF-CEM = test system: CCRF-CEM
HOP-92 = test system: HOP-92
SNB-75 = test system: SNB-75
M14 = test system: M14
LXFL 529 = test system: LXFL 529
SK-MEL-5 = test system: SK-MEL-5
HOP-18 = test system: HOP-18
ACHN = test system: ACHN
UACC-257 = test system: UACC-257
SN12C = test system: SN12C
RPMI-8226 = test system: RPMI-8226
M19-MEL = test system: M19-MEL
SF-295 = test system: SF-295
SK-OV-3 = test system: SK-OV-3
HCC 2998 = test system: HCC 2998
U-251 = test system: U-251
NCI-H522 = test system: NCI-H522
SF-539 = test system: SF-539
COLO 205 = test system: COLO 205
SK-MEL-28 = test system: SK-MEL-28
MOLT-4 = test system: MOLT-4
TK-10 = test system: TK-10
UO-31 = test system: UO-31
XF498 = test system: XF498
SK-MEL-2 = test system: SK-MEL-2
LOX IMVI = test system: LOX IMVI
DLD-1 = test system: DLD-1
OVCAR-3 = test system: OVCAR-3
NCI-H23 = test system: NCI-H23
HCT-15 = test system: HCT-15
SW-620 = test system: SW-620
SNB-78 = test system: SNB-78
HL-60 = test system: HL-60
RXF 631 = test system: RXF 631
A549 = test system: A549
UACC-62 = test system: UACC-62
SNB-19 = test system: SNB-19
RXF 393 = test system: RXF 393
786-0 = test system: 786-0
OVCAR-4 = test system: OVCAR-4
K562 = test system: K562
DMS-114 = test system: DMS-114
DMS-273 = test system: DMS-273
CAKI-1 = test system: CAKI-1
NCI-H226 = test system: NCI-H226
HOP-62 = test system: HOP-62

`CC(C)(C)[Si](OC1CCOC1=O)(c1ccccc1)c1ccccc1` (stereo not drawn) was tested, and the GI50 (IGROV-1) was 15.7 µM (inactive), the GI50 (A498) was 25.3 µM (inactive) and the GI50 (SR) was > 10 µM (inactive). The GI50 (EKVX) was 31.3 µM (inactive), the GI50 (SF-268) was 23 µM (inactive) and the GI50 (Malme-3M) was 16.5 µM (inactive). For the same compound, the GI50 (NCI-H460) was 18.7 µM (inactive), the GI50 (OVCAR-5) was 26.7 µM (inactive) and the GI50 (KM12) was > 10 µM (inactive). For the same compound, the GI50 (HT-29) was 15.3 µM (inactive), the GI50 (HCT-116) was 13.6 µM (inactive) and the GI50 (OVCAR-8) was 23.4 µM (inactive). The GI50 (KM-20L2) was 14.5 µM (inactive), the GI50 (CCRF-CEM) was 25.6 µM (inactive) and the GI50 (HOP-92) was > 10 µM (inactive). For the same compound, the GI50 (SNB-75) was 23.6 µM (inactive), the GI50 (M14) was 18 µM (inactive) and the GI50 (LXFL 529) was 20.7 µM (inactive). For the same compound, the GI50 (SK-MEL-5) was 13.4 µM (inactive), the GI50 (HOP-18) was 18.9 µM (inactive) and the GI50 (ACHN) was 19.1 µM (inactive). The GI50 (UACC-257) was 17.1 µM (inactive), the GI50 (SN12C) was 17.1 µM (inactive) and the GI50 (RPMI-8226) was 29 µM (inactive). The GI50 (M19-MEL) was 19.2 µM (inactive), the GI50 (SF-295) was 16 µM (inactive) and the GI50 (SK-OV-3) was 33.9 µM (inactive). For the same compound, the GI50 (HCC 2998) was 18.9 µM (inactive), the GI50 (U-251) was 14.7 µM (inactive) and the GI50 (NCI-H522) was 13.8 µM (inactive). The GI50 (SF-539) was 23.4 µM (inactive), the GI50 (COLO 205) was > 10 µM (inactive) and the GI50 (SK-MEL-28) was 22.3 µM (inactive). The GI50 (MOLT-4) was 17.5 µM (inactive), the GI50 (TK-10) was 22.5 µM (inactive) and the GI50 (UO-31) was 27.1 µM (inactive). For the same compound, the GI50 (XF498) was 11.1 µM (inactive), the GI50 (SK-MEL-2) was 16.6 µM (inactive) and the GI50 (LOX IMVI) was 15.5 µM (inactive). For the same compound, the GI50 (DLD-1) was 22.2 µM (inactive), the GI50 (OVCAR-3) was 13.1 µM (inactive) and the GI50 (NCI-H23) was 19.4 µM (inactive). The GI50 (HCT-15) was 18.5 µM, the GI50 (SW-620) was 26.5 µM (inactive) and the GI50 (SNB-78) was 32.2 µM (inactive). The GI50 (HL-60) was 14.4 µM (inactive), the GI50 (RXF 631) was 22.5 µM (inactive) and the GI50 (A549) was 15.2 µM (inactive). For the same compound, the GI50 (UACC-62) was 13.9 µM (inactive) and the GI50 (SNB-19) was 29.6 µM (inactive).

In the case of `COc1cccc(CC(C)N)c1` (stereo not drawn), the GI50 (IGROV-1) is reported as > 100 µM (inactive), the GI50 (A498) is reported as > 100 µM (inactive) and the GI50 (SR) is reported as > 100 µM (inactive). For the same compound, the GI50 (EKVX) was > 100 µM (inactive), the GI50 (SF-268) was > 100 µM (inactive) and the GI50 (Malme-3M) was > 100 µM (inactive). The GI50 (NCI-H460) was > 100 µM (inactive), the GI50 (RXF 393) was > 100 µM (inactive) and the GI50 (OVCAR-5) was > 100 µM (inactive). For the same compound, the GI50 (KM12) was > 100 µM (inactive), the GI50 (HT-29) was > 100 µM (inactive) and the GI50 (HCT-116) was > 100 µM (inactive). The GI50 (OVCAR-8) was > 100 µM (inactive), the GI50 (KM-20L2) was > 100 µM (inactive) and the GI50 (CCRF-CEM) was > 100 µM (inactive). For the same compound, the GI50 (HOP-92) was > 100 µM (inactive), the GI50 (786-0) was > 100 µM (inactive) and the GI50 (OVCAR-4) was > 100 µM (inactive). For the same compound, the GI50 (K562) was > 100 µM (inactive), the GI50 (SNB-75) was > 100 µM (inactive) and the GI50 (DMS-114) was > 100 µM (inactive). The GI50 (M14) was > 100 µM (inactive), the GI50 (LXFL 529) was > 100 µM (inactive) and the GI50 (SK-MEL-5) was > 100 µM (inactive). The GI50 (HOP-18) was > 100 µM (inactive), the GI50 (ACHN) was > 100 µM (inactive) and the GI50 (UACC-257) was > 100 µM (inactive). For the same compound, the GI50 (SN12C) was > 100 µM (inactive), the GI50 (RPMI-8226) was > 100 µM (inactive) and the GI50 (SF-295) was > 100 µM (inactive). For the same compound, the GI50 (SK-OV-3) was > 100 µM (inactive), the GI50 (HCC 2998) was > 100 µM (inactive) and the GI50 (DMS-273) was > 100 µM (inactive). For the same compound, the GI50 (CAKI-1) was > 100 µM (inactive), the GI50 (U-251) was > 100 µM (inactive) and the GI50 (NCI-H522) was > 100 µM (inactive). The GI50 (SF-539) was > 100 µM (inactive), the GI50 (COLO 205) was > 100 µM (inactive) and the GI50 (SK-MEL-28) was > 100 µM (inactive). The GI50 (MOLT-4) was > 100 µM (inactive), the GI50 (TK-10) was > 100 µM (inactive) and the GI50 (NCI-H226) was > 100 µM (inactive). The GI50 (UO-31) was > 100 µM (inactive), the GI50 (SK-MEL-2) was > 100 µM (inactive) and the GI50 (LOX IMVI) was > 100 µM (inactive). The GI50 (DLD-1) was > 100 µM (inactive), the GI50 (OVCAR-3) was > 100 µM (inactive) and the GI50 (NCI-H23) was > 100 µM (inactive). For the same compound, the GI50 (HCT-15) was over 100 µM, the GI50 (SW-620) was > 100 µM (inactive) and the GI50 (HOP-62) was > 100 µM (inactive). The GI50 (SNB-78) was > 100 µM (inactive), the GI50 (HL-60) was > 100 µM (inactive) and the GI50 (RXF 631) was > 100 µM (inactive). For the same compound, the GI50 (A549) was > 100 µM (inactive), the GI50 (UACC-62) was > 100 µM (inactive) and the GI50 (SNB-19) was > 100 µM (inactive).

In the case of `O=c1c(O)c(-c2ccccc2)n(O)c2ccc(Cl)cc12`, the GI50 (IGROV-1) is reported as 29.6 µM (inactive), the GI50 (A498) is reported as 29.2 µM (inactive) and the GI50 (SR) is reported as 28.8 µM (inactive). The GI50 (SF-268) was 27.4 µM (inactive), the GI50 (Malme-3M) was 60.1 µM (inactive) and the GI50 (NCI-H460) was 23.6 µM (inactive). For the same compound, the GI50 (RXF 393) was 23.1 µM (inactive), the GI50 (OVCAR-5) was 38.9 µM (inactive) and the GI50 (KM12) was 31.6 µM (inactive). The GI50 (HT-29) was 36.8 µM (inactive), the GI50 (HCT-116) was 10.9 µM (inactive) and the GI50 (OVCAR-8) was 21.3 µM (inactive). The GI50 (KM-20L2) was 28.1 µM (inactive), the GI50 (CCRF-CEM) was 23.9 µM (inactive) and the GI50 (HOP-92) was 34.6 µM (inactive). For the same compound, the GI50 (786-0) was 28.7 µM (inactive), the GI50 (OVCAR-4) was 36.3 µM (inactive) and the GI50 (K562) was 26.5 µM (inactive). The GI50 (SNB-75) was 29 µM (inactive), the GI50 (DMS-114) was 23 µM (inactive) and the GI50 (M14) was 30.8 µM (inactive). The GI50 (LXFL 529) was 23.8 µM (inactive), the GI50 (SK-MEL-5) was 17.5 µM (inactive) and the GI50 (HOP-18) was 47.8 µM (inactive). For the same compound, the GI50 (ACHN) was 30.6 µM (inactive), the GI50 (UACC-257) was 25.1 µM (inactive) and the GI50 (SN12C) was 20.8 µM (inactive). The GI50 (RPMI-8226) was 23.4 µM (inactive), the GI50 (SF-295) was 29.4 µM (inactive) and the GI50 (SK-OV-3) was 30.8 µM (inactive). The GI50 (HCC 2998) was 17.7 µM (inactive), the GI50 (DMS-273) was 20.3 µM (inactive) and the GI50 (CAKI-1) was 29.9 µM (inactive). The GI50 (U-251) was 25.8 µM (inactive), the GI50 (NCI-H522) was 21.4 µM (inactive) and the GI50 (SF-539) was 20 µM (inactive). The GI50 (COLO 205) was 36.1 µM (inactive), the GI50 (SK-MEL-28) was 44 µM (inactive) and the GI50 (MOLT-4) was 32.7 µM (inactive). For the same compound, the GI50 (TK-10) was 31.3 µM (inactive), the GI50 (NCI-H226) was 19.1 µM (inactive) and the GI50 (UO-31) was 51.2 µM (inactive). For the same compound, the GI50 (SK-MEL-2) was 21.5 µM (inactive), the GI50 (LOX IMVI) was 11.4 µM (inactive) and the GI50 (DLD-1) was 26.8 µM (inactive). For the same compound, the GI50 (OVCAR-3) was 32.3 µM (inactive), the GI50 (NCI-H23) was 34.7 µM (inactive) and the GI50 (HCT-15) was 16 µM. For the same compound, the GI50 (SW-620) was 16.6 µM (inactive), the GI50 (HOP-62) was 27.9 µM (inactive) and the GI50 (SNB-78) was 37.3 µM (inactive). For the same compound, the GI50 (HL-60) was 24.1 µM (inactive), the GI50 (RXF 631) was 27.5 µM (inactive) and the GI50 (A549) was 29.6 µM (inactive). The GI50 (UACC-62) was 24.5 µM (inactive) and the GI50 (SNB-19) was 34.2 µM (inactive).
